The values that follow come from ChEMBL document CHEMBL4765380, “Synthesis, structure and anticancer activity of new geldanamycin amine analogs containing C(17)- or C(20)- flexible and rigid arms as well as closed or open ansa-bridges” (Eur J Med Chem, 2020).

One data set relates to SK-BR-3. Nature of the data set: Antiproliferative activity against human SK-BR-3 cells assessed as reduction in cell growth incubated for 72 hrs by SRB assay. Conditions: SK-BR-3, 72 h. It is filed as functional, cell-based.
A further data set concerns SK-OV-3. Nature of the data set: Antiproliferative activity against human SK-OV-3 cells assessed as reduction in cell growth incubated for 72 hrs by SRB assay. In kind it is functional, cell-based. The following applies: SK-OV-3, 72 h.
The subject of the next data set is PC-3. The data set can be described thus: Antiproliferative activity against human PC-3 cells assessed as reduction in cell growth incubated for 72 hrs by SRB assay. In kind it is functional, cell-based. Conditions: PC-3, 72 h.
The next data set relates to U-87 MG. The data set can be described thus: Antiproliferative activity against human U-87 MG cells assessed as reduction in cell growth incubated for 72 hrs by SRB assay. It is filed as functional, cell-based, U-87MG ATCC. In general terms: Sulforhodamine B stains cellular protein and so reports cell mass.
A further data set concerns A549. The data set can be described thus: Antiproliferative activity against human A549 cells assessed as reduction in cell growth incubated for 72 hrs by SRB assay. In kind it is functional, cell-based. Conditions: A549, 72 h.
Data set [1] can be described thus: Cytotoxicity against human HDF cells assessed as reduction in cell growth incubated for 72 hrs by SRB assay. It is filed as cell-based. The following applies: HDFa.
Data set [2] in a line: Selectivity index, ratio of IC50 for cytotoxicity against human HDF cells to IC50 for cytotoxicity against human SK-BR-3 cells. It is filed as toxicity, cell-based. The following applies: HDF cells versus SK-BR-3 cells, read-out: Ratio IC50.
Data set [3] can be described thus: Selectivity index, ratio of IC50 for cytotoxicity against human HDF cells to IC50 for cytotoxicity against human SK-OV-3 cells.
Data set [4] can be described thus: Selectivity index, ratio of IC50 for cytotoxicity against human HDF cells to IC50 for cytotoxicity against human PC-3 cells. It is filed as toxicity, cell-based. Conditions: HDF cells versus PC-3 cells, read-out: Ratio IC50.
A short description of data set [5]: Selectivity index, ratio of IC50 for cytotoxicity against human HDF cells to IC50 for cytotoxicity against human U-87 MG cells. The following applies: HDF cells versus U-87 MG cells, read-out: Ratio IC50. It is filed as toxicity, cell-based.
Data set [6] in a line: Selectivity index, ratio of IC50 for cytotoxicity against human HDF cells to IC50 for cytotoxicity against human A549 cells. In kind it is toxicity, cell-based. Conditions: HDF cells versus A549 cells, read-out: Ratio IC50.

The IC50 is the point on the concentration scale where inhibition reaches its midpoint.

As for `CO[C@H]1/C=C\C=C(/C)C(=O)NC2=CC(=O)C(NCc3ccc(CS(N)(=O)=O)cc3)=C(C[C@@H](C)C[C@H](OC)[C@H](O)[C@@H](C)/C=C(\C)[C@@H]1OC(N)=O)C2=O`, the IC50 with SK-BR-3 is 2060 nM; in the data set with SK-OV-3 it was 2000 nM; in the data set with PC-3, 1780 nM; in the data set with U-87 MG, 2740 nM; in the data set on A549 it was 2020 nM; in data set [1], 4960 nM. Further, the values for the selectivity ratio in data set [2], in data set [4] and in data set [5] were 2.41, 2.9 and 1.81, respectively. Besides, the “Ratio IC50” value in data set [3] is 2.48.
Turning to `CCCCOCCOCCNC1=C2C[C@@H](C)C[C@H](OC)[C@H](O)[C@@H](C)/C=C(\C)[C@H](OC(N)=O)[C@@H](OC)/C=C\C=C(/C)C(=O)NC(=CC1=O)C2=O`, the 50% inhibitory concentration (IC50) is 1020 nM in the data set on SK-BR-3; 1660 nM in the data set on SK-OV-3; 1480 nM in the data set on PC-3; 1220 nM with U-87 MG; 1190 nM with A549; 2640 nM in [1]. In addition, the selectivity ratio was determined as 2.59 in data set [2], 1.78 in [4], 2.16 in [5] and 2.22 in data set [6]. In addition, the “Ratio IC50” value in [3] is recorded as 1.59.
On to `CO[C@H]1/C=C\C=C(/C)C(=O)NC2=CC(=O)C(NCCCCCCO)=C(C[C@@H](C)C[C@H](OC)[C@H](O)[C@@H](C)/C=C(\C)[C@@H]1OC(N)=O)C2=O`, for which the IC50 in the data set on SK-BR-3 came out at 2070 nM; with SK-OV-3, 2190 nM; in the data set on PC-3, 2240 nM; with U-87 MG, 2080 nM; with A549 it was 2770 nM; in [1] it was 5990 nM. The selectivity ratio stood at 2.89 in data set [2], 2.67 in data set [4], 2.88 in [5] and 2.16 in data set [6]. In addition, the “Ratio IC50” value in [3] was found to be 2.74.
In the case of `CO[C@@H](/C=C/C=C(/C)C(N)=O)[C@@H](OC(N)=O)/C(C)=C/[C@H](C)[C@@H](O)[C@H](C[C@H](C)CC1=C(NCCCN2CCCC2)C(=O)C=C(NCCCN2CCCC2)C1=O)OC`, the IC50 was 8260 nM with SK-BR-3; 9410 nM in the data set on SK-OV-3; 9070 nM in the data set on PC-3; 8490 nM in the data set with U-87 MG; 8110 nM in the data set with A549; 20600 nM in [1]. Moreover, the selectivity ratio in data set [2] is 2.49; in [4] it was 2.27; in [5], 2.43; in data set [6] it was 2.54. Besides, in data set [3], the “Ratio IC50” value came out at 2.19.
As to `CO[C@H]1/C=C\C=C(/C)C(=O)NC2=CC(=O)C(NCCCCO)=C(C[C@@H](C)C[C@H](OC)[C@H](O)[C@@H](C)/C=C(\C)[C@@H]1OC(N)=O)C2=O`, the 50% inhibitory concentration (IC50) with SK-BR-3 turned out to be 1630 nM; in the data set with SK-OV-3 it was 1590 nM; in the data set with PC-3, 1660 nM; in the data set on U-87 MG, 1600 nM; with A549, 1630 nM; in data set [1], 3510 nM. In addition, the selectivity ratio was determined as 2.15 in data set [2], 2.11 in [4], 2.19 in [5] and 2.15 in data set [6]. The “Ratio IC50” value in data set [3] is 2.21.
On to `COc1c(O)cc2cc1C[C@@H](C)C[C@H](OC)[C@H](O)[C@@H](C)/C=C(\C)[C@H](OC(N)=O)[C@@H](OC)CC/C=C(\C)C(=O)N2` [REBLASTATIN], for which the IC50 with SK-BR-3 stood at 600 nM; in the data set with SK-OV-3, 125 nM; in the data set on PC-3 it was 18 nM. Further, the selectivity ratio in [2] stood at 53; in data set [4], 54. For the same compound, in data set [3], the “Ratio IC50” value is listed as 54.
In the case of `CO[C@H]1/C=C\C=C(/C)C(=O)NC2=CC(=O)C(NC3CCN(S(C)(=O)=O)CC3)=C(C[C@@H](C)C[C@H](OC)[C@H](O)[C@@H](C)/C=C(\C)[C@@H]1OC(N)=O)C2=O`, the half-inhibitory concentration (IC50) in the data set with SK-BR-3 turned out to be 2190 nM; in the data set with SK-OV-3, 2490 nM; with PC-3, 2010 nM; with U-87 MG it was 2330 nM; with A549, 2930 nM; in data set [1] it was 6420 nM. The selectivity ratio was determined as 2.93 in data set [2], 3.19 in data set [4], 2.76 in data set [5] and 2.19 in data set [6]. Also, in [3], the “Ratio IC50” value came to 2.58.
In the case of `CO[C@H]1/C=C\C=C(/C)C(=O)NC2=CC(=O)C(NC3CCC(O)CC3)=C(C[C@@H](C)C[C@H](OC)[C@H](O)[C@@H](C)/C=C(\C)[C@@H]1OC(N)=O)C2=O` (some centres not stated), the IC50 turned out to be 3830 nM with SK-BR-3; 3160 nM in the data set with SK-OV-3; 3290 nM in the data set on PC-3; 3710 nM with U-87 MG; 3310 nM with A549; 8190 nM in data set [1]. For the same compound, the selectivity ratio in data set [2] came to 2.14; in [4], 2.49; in data set [5], 2.21; in data set [6], 2.47. The “Ratio IC50” value in data set [3] is given as 2.59.
Consider `CO[C@H]1/C=C\C=C(/C)C(=O)NC2=CC(=O)C(NCCCN3CCCC3)=C(C[C@@H](C)C[C@H](OC)[C@H](O)[C@@H](C)/C=C(\C)[C@@H]1OC(N)=O)C2=O`, for which the IC50 in the data set with SK-BR-3 was found to be 2060 nM; in the data set on SK-OV-3 it was 2820 nM; in the data set on PC-3 it was 2730 nM; with U-87 MG, 2040 nM; in the data set with A549 it was 2610 nM; in data set [1] it was 7380 nM. The selectivity ratio in [2] was found to be 3.58; in [4] it was 2.7; in data set [5] it was 3.62; in data set [6], 2.83. Moreover, the “Ratio IC50” value in data set [3] turned out to be 2.62.
Take `CO[C@H]1/C=C\C=C(/C)C(=O)NC2=CC(=O)C(NCC3COCCOCCOCCOCCO3)=C(C[C@@H](C)C[C@H](OC)[C@H](O)[C@@H](C)/C=C(\C)[C@@H]1OC(N)=O)C2=O` (some centres not stated): the IC50 with SK-OV-3 stood at 2940 nM; with PC-3, 2330 nM; in the data set on U-87 MG it was 2990 nM; with A549, 2080 nM; in data set [1], 5710 nM. The selectivity ratio in [2] came out at 2.48; in data set [4], 2.26; in data set [5] it was 1.91; in data set [6] it was 2.75. Moreover, the “Ratio IC50” value in data set [3] is reported as 1.94.
As to `CO[C@H]1/C=C\C=C(/C)C(=O)NC2=CC(=O)C(NCc3cccc(CS(=O)(=O)N(C(C)C)C(C)C)c3)=C(C[C@@H](C)C[C@H](OC)[C@H](O)[C@@H](C)/C=C(\C)[C@@H]1OC(N)=O)C2=O`, the IC50 in the data set with SK-BR-3 was 2480 nM; in the data set with SK-OV-3, 2050 nM; with PC-3, 2750 nM; in the data set on U-87 MG, 2390 nM; in the data set with A549, 2970 nM; in [1], 5370 nM. Also, the selectivity ratio worked out at 2.17 in [2], 1.95 in data set [4], 2.25 in [5] and 1.81 in [6]. Further, the “Ratio IC50” value in data set [3] worked out at 2.62.
Turning to `CO[C@H]1/C=C\C=C(/C)C(=O)NC2=CC(=O)C(NCc3ccccc3F)=C(C[C@@H](C)C[C@H](OC)[C@H](O)[C@@H](C)/C=C(\C)[C@@H]1OC(N)=O)C2=O`, the half-maximal inhibitory concentration (IC50) worked out at 1840 nM with SK-BR-3; 1350 nM in the data set with SK-OV-3; 1520 nM with PC-3; 1040 nM in the data set with U-87 MG; 1130 nM with A549; 2690 nM in data set [1]. The selectivity ratio came to 1.46 in data set [2], 1.77 in data set [4], 2.59 in data set [5] and 2.38 in data set [6]. In [3], the “Ratio IC50” value amounted to 1.99.
For `CO[C@H]1/C=C\C=C(/C)C(=O)NC2=CC(=O)C(NCCOCCO)=C(C[C@@H](C)C[C@H](OC)[C@H](O)[C@@H](C)/C=C(\C)[C@@H]1OC(N)=O)C2=O`, the concentration for half-maximal inhibition (IC50) with SK-BR-3 is 2050 nM; with SK-OV-3, 2510 nM; with PC-3 it was 1960 nM; with U-87 MG, 2660 nM; with A549 it was 2150 nM; in [1], 4990 nM. Also, the selectivity ratio worked out at 2.43 in data set [2], 2.55 in [4], 1.88 in data set [5] and 2.32 in data set [6]. Also, in [3], the “Ratio IC50” value worked out at 1.99.
In the case of `CO[C@H]1/C=C\C=C(/C)C(=O)NC2=CC(=O)C(NCCO)=C(C[C@@H](C)C[C@H](OC)[C@H](O)[C@@H](C)/C=C(\C)[C@@H]1OC(N)=O)C2=O`, the 50% inhibitory concentration (IC50) with SK-BR-3 came out at 1130 nM; in the data set with SK-OV-3, 1110 nM; in the data set with PC-3, 1370 nM; with U-87 MG it was 1250 nM; with A549 it was 1050 nM; in [1] it was 3970 nM. Also, the selectivity ratio in data set [2] is 3.51; in data set [4], 2.9; in [5], 3.18; in data set [6] it was 3.78. In addition, the “Ratio IC50” value in data set [3] is on record as 3.58.
As for `CO[C@H]1/C=C\C=C(/C)C(=O)NC2=CC(=O)C(NC3CCN(C(C)=O)CC3)=C(C[C@@H](C)C[C@H](OC)[C@H](O)[C@@H](C)/C=C(\C)[C@@H]1OC(N)=O)C2=O`, the IC50 in the data set on SK-BR-3 was determined as 1030 nM; with SK-OV-3, 1730 nM; in the data set with PC-3 it was 1660 nM; in the data set with U-87 MG, 1120 nM; in the data set on A549 it was 970 nM; in data set [1], 4190 nM. Moreover, the results for the selectivity ratio in data set [2], in [4] and in data set [6] were 4.07, 2.52 and 4.32, respectively. In addition, in [3], the “Ratio IC50” value is listed as 2.42.
